Results: patent US20220133697A1, “INJECTABLE FORMULATIONS” (Aldeyra Therapeutics, Inc., priority 2018, published 2022)

How the values were obtained:
[1] = system: endotoxin induced uveitis; test: rat model of endotoxin induced uveitis, ocular exam scores; type: in vivo, female Lewis rats; conditions: for retina-choroid scores, within-subject statistical analysis (treatment and time): IVT treatment, compared to vehicle control
Method: (§1) An in vivo study was conducted to assess the efficacy of intravitreal administration of Compound I-5 and I-22 in a rat model of endotoxin induced uveitis, one of the most appropriate models for the study of non-infectious uveitis (NIU) (Smith et al., 1998, Immunol Cell Biol. 76(6):497-512) (Toxikon Study 16-04078-N1). Ocular inflammation was induced in female Lewis rats (n=10/group) by a single, foot pad injection of lipopolysaccharide (LPS) (100 μL) (Herbort et al., 1988, Graefes Arch Clin Exp Ophthalmol. 226(6):553-8). Compound I-5 or I-22 (50 μg) was topically administered (TO) to the eye at hours 1, 3, 7, 10, and 17, after LPS induction, or by a single intravitreal (IVT) injection (25 μg) 1 hour after LPS induction (n=10 per group). Ocular exams were performed six and 24 hours after LPS injection. Anterior segments were scored using a combined Draize and McDonald-Shattuck scoring system, and posterior segments were scored using 0 to 1 (vitreous, optic disc, retinal vasculature) and 0 to 4 (retinal and choroidal hemorrhage, exudation, and detachment) scales. Statistical significance from vehicle control was determined by ANOVA, followed by Tukey's post hoc test. The test compound, e.g., Compound I-22 (5 mg/mL), was administered intravitreally into each eye (25 μg/eye) within one hour of LPS administration. Balanced salt solution (BSS) served as a vehicle control. Retinal exams were performed prior to study start and six and 24 hours following LPS administration and scored using a Combined Draize and McDonald Shadduck scoring system, based on assessments of: (a) Retinal vasculopathy; (2) Retinal hemorrhage, exudate or detachment; and (3) Retinal hemorrhage, exudate or detachment.

[2] = system: MDA adducts; test: MDA adducts in the LPS-induced uveitis model; type: in vivo, female Lewis rats; conditions: after TO and IVT administration; data not shown
Method: as §1, with “Compound I-5 or I-22 (50 μg) was topically administered (TO) to the eye at hours 1, 3, 7, 10, and 17, after LPS induction, or by a single intravitreal (IVT) injection (25 μg) 1 hour after LPS induction (n=10 per group). Ocular exams were performed six and 24 hours after LPS injection.” left out, “The test compound, e.g., Compound I-22 (5 mg/mL), was administered intravitreally into each eye (25 μg/eye) within one hour of LPS administration. Balanced salt solution (BSS) served as a vehicle control.” left out

[3] = system: A2E; test: A2E formation in retinas of abcr-/- mouse knockout model of macular degeneration; type: in vivo, mice; conditions: 10 mg/kg intraperitoneally daily for 56 days, HPLC, compared with vehicle controls
Method: (§2) A mouse knockout model (abcr−/−) of macular degeneration (MD) was used to test the activities of Compound I-5 and Compound I-22. The retinal transport protein, ABCA4, is not expressed in these mice, allowing retinaldehdye to escape the light cycle and form a toxic metabolite with phosphatidylethanolamine, N-retinylidene-phosphatidylethanolamine (A2E). Mice were treated intraperitoneally (IP) for 56 days with 10 mg/kg Compound I-5 (n=24), Compound I-22 (n=24), or vehicle (n=22), starting at week 10 to 12 of life. An untreated control group (n=12) was sacrificed on the first day of dosing. After treatment, A2E concentrations in retinas were measured by HPLC. Statistical significance from vehicle control was determined by t-test.

[4] = dark adaptation, separate study; type: in vivo; conditions: systemic (IP) doses 5-fold greater than the effective dose in the A2E study, 56 days; data not shown
[5] = body weight and adverse effects during 56 days daily treatment in the abcr-/- mouse study; type: in vivo, mice; conditions: daily treatment for 56 days
Method: as §2

[6] = system: diabetic macular edema; test: rat model of diabetic macular edema (STZ-induced diabetes), retinal histology scores; type: in vivo
Method: To assess the effect of Compound I-22 in a rat model of diabetic macular edema (DME), Type 1 diabetes was induced in male brown Norway rats by intraperitoneal administration of streptozotocin (STZ; 55 mg/kg). Forty days after STZ administration, animals were tested for diabetes by testing blood glucose levels.
Animals with diabetes were assigned to groups of ten, to receive either vehicle (HPβCD) or Compound I-22. […] On Day 41 (about Week 6) after STZ induction, animals received a single intravitreal injection of Compound I-22 (3.5 μL; 17.5 μg) or vehicle per eye. On Day 57 (about Week 8) after STZ induction, animals received a second intravitreal injection of Compound I-22 or vehicle.
On Day 70 (about Week 10) after STZ induction, animals were euthanized and retinas were processed for histological examination. Sections (3 to 5 μm) were stained with hematoxylin and eosin and evaluated by light microscopy. Changes in retinal thickness were scored on a 0 to 4 scale, with 0 meaning no changes, 1 meaning minimal changes, 2 meaning mild changes, 3 meaning moderate changes, and 4 meaning severe changes, relative to non-diabetic controls. Six microscopic sections were examined for each eye, and retinas were also assessed and scored by a pathologist for changes in vascularity and neutrophil infiltration.

[7] = single intravitreal (IVT) injection 25 μg 1 hour after LPS, vs. vehicle
[8] = topical (TO) 50 μg at hours 1, 3, 7, 10, 17 after LPS, at 6 hours and 24 hours, compared to vehicle

SMILES | retina-choroid scores, within-subject statistical analysis (treatment and time) [1] | ocular exam scores (total ocular, anterior chamber and retina-choroid inflammation) [1, 7] | ocular exam scores (total ocular, anterior chamber and retina-choroid inflammation) [1, 8] | MDA adducts [2] | decrease in formation of A2E [3] [%] | effect on dark adaptation [4] | drug-related adverse effects [5] | effect on body weight [5] | reduction in retinal vascularity compared to vehicle, statistical significance ([6]; intravitreal 17.5 μg per eye on Day 41 and Day 57 after STZ, FIG. 10) | neutrophil infiltration (score 0 to 4) ([6]; intravitreal 17.5 μg per eye on Day 41 and Day 57 after STZ, compared to vehicle, p<0.01) | decrease in retinal vascularity score ([6]; intravitreal 17.5 μg per eye on Day 41 and Day 57 after STZ, compared to vehicle, p<0.05) [%] | retinal thickness (score 0 to 4) ([6]; intravitreal 17.5 μg per eye on Day 41 and Day 57 after STZ, histology Day 70, p<0.01) | tolerability in the retina ([6]; intravitreal injection, rat DME model) | retinal inflammation ([6]; measured by retinal thickness, neutrophil infiltration and retinal vascular changes)
CC(C)(O)c1nc2ccc(Cl)cc2cc1N [Compound I-5] | significantly improved | significantly improved | significantly improved | Small, although not significant, reductions | 71 | no effect | nor were any drug-related adverse effects observed | no effect |  |  |  |  |  | 
CC(C)(O)c1cc2oc(-c3ccccc3)nc2cc1N [Compound I-22] | significantly improved | significantly improved | significantly improved | Small, although not significant, reductions | 69 |  | nor were any drug-related adverse effects observed | no effect | not statistically significant | significant reduction | 36 | significant reduction | well tolerated | decreased
